Data as given in BindingDB's records for doi:10.1111/j.1747-0285.2007.00608.x (National Institute of Pharmaceutical Education and Research, 2008).

Target: T1, UDP-3-O-acyl-N-acetylglucosamine deacetylase (Pseudomonas aeruginosa (strain ATCC 15692 / DSM 22644 / CIP 104116 / JCM 14847 / LMG 12228 / 1C / PRS 101 / PAO1), UniProt P47205)
T1 sequence (P47205 whole entry): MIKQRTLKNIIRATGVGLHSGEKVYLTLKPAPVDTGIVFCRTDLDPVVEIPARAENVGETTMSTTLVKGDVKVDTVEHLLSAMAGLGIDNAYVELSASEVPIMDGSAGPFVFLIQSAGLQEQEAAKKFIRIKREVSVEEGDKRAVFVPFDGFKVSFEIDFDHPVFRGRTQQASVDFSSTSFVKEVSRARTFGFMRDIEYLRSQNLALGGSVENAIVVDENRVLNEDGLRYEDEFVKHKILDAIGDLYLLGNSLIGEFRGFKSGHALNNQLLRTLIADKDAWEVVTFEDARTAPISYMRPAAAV
Test: Inhibition Assay
From the text: The LpxC inhibitors were used as the reference for development of flexible alignment-based pharamcophore, pharamcophore mapping study.

SMILES | IC50
CN(C)c1ccc(C2=N[C@@H](C(=O)NO)CO2)cc1 [CS273] | 4.9 µM
CCCc1cc(C2=N[C@@H](C(=O)NO)CO2)cc(OC(F)(F)F)c1OC [LpxC Inhibitor, L1] | 0.5 µM
O=C(NO)[C@H]1COC(c2ccc(COc3cccc([N+](=O)[O-])c3)cc2)=N1 [LpxC Inhibitor, L2] | 0.56 µM
Cc1cc(C2=N[C@@H](C(=O)NO)CO2)ccc1F [LpxC Inhibitor, L3] | 1.2 µM
C=CCOc1ccc(C2=N[C@@H](C(=O)NO)CO2)cc1C(F)(F)F [LpxC Inhibitor, L4] | 2.2 µM
O=C(N[C@@H](CO)C(=O)NO)c1n[nH]c2ccccc12 [LpxC Inhibitor, L5] | 13 µM
O=C(NO)[C@H]1COC(c2ccc(OCc3cccc(F)c3)c(C(F)(F)F)c2)=N1 [LpxC Inhibitor, L6] | 0.25 µM
O=C(NO)[C@H]1COC(c2cc(F)cc(C(F)(F)F)c2)=N1 [LpxC Inhibitor, L7] | 25 µM
O=C(NO)[C@H]1COC(c2n[nH]c3ccccc23)=N1 [LpxC Inhibitor, L9] | 5.5 µM
CCOc1cc(C2=N[C@@H](C(=O)NO)CO2)ccc1F [LpxC Inhibitor, L10] | 1 µM
CCCCn1nc(C2=N[C@@H](C(=O)NO)CO2)c2ccccc21 [LpxC Inhibitor, L11] | 10 µM
CCCCn1nc2ccccc2c1C1=N[C@@H](C(=O)NO)CO1 [LpxC Inhibitor, L12] | 12 µM
CCCc1cc(C(=O)N[C@@H](CO)C(=O)NO)cc(OC(C)(C)C)c1OC [LpxC Inhibitor, L13] | > 50 µM
CCCc1cc(C2=N[C@H](C(=O)NO)CS2)cc(OC(F)(F)F)c1OC [LpxC Inhibitor, L14] | 17.8 µM
COc1ccc(C2=N[C@H](C(=O)NO)CO2)cc1OC(F)(F)F [LpxC Inhibitor, L15] | 0.16 µM
O=C(NO)[C@@H]1COC(c2ccc(OCc3cccc([N+](=O)[O-])c3)cc2)=N1 [LpxC Inhibitor, L16] | 1 µM
O=C(NO)[C@@H]1COC(c2ccc(O)cc2)=N1 [LpxC Inhibitor, L17] | > 30 µM
Cc1ccc(C2=N[C@H](C(=O)NO)CS2)cc1 [LpxC Inhibitor, L18] | 38.5 µM
